Experimental data published in patent EP0176999A2, “Amino acid derivatives, process for their preparation and pharmaceutical compositions” (BOEHRINGER INGELHEIM KG, priority 1984, dated 1986).

What was measured:
[1] = biological target: T1, Angiotensin I Converting Enzym (Oryctolagus cuniculus, UniProt P12822); experiment: Inhibition of angiotensin I converting enzyme in vitro; format: biochemical; conditions: inhibitor concentration at which the enzyme is 50 % inhibited (Cheung, Cushman method), read-out: Hemmaktivität IC50
T1 sequence (P12822 34-1310): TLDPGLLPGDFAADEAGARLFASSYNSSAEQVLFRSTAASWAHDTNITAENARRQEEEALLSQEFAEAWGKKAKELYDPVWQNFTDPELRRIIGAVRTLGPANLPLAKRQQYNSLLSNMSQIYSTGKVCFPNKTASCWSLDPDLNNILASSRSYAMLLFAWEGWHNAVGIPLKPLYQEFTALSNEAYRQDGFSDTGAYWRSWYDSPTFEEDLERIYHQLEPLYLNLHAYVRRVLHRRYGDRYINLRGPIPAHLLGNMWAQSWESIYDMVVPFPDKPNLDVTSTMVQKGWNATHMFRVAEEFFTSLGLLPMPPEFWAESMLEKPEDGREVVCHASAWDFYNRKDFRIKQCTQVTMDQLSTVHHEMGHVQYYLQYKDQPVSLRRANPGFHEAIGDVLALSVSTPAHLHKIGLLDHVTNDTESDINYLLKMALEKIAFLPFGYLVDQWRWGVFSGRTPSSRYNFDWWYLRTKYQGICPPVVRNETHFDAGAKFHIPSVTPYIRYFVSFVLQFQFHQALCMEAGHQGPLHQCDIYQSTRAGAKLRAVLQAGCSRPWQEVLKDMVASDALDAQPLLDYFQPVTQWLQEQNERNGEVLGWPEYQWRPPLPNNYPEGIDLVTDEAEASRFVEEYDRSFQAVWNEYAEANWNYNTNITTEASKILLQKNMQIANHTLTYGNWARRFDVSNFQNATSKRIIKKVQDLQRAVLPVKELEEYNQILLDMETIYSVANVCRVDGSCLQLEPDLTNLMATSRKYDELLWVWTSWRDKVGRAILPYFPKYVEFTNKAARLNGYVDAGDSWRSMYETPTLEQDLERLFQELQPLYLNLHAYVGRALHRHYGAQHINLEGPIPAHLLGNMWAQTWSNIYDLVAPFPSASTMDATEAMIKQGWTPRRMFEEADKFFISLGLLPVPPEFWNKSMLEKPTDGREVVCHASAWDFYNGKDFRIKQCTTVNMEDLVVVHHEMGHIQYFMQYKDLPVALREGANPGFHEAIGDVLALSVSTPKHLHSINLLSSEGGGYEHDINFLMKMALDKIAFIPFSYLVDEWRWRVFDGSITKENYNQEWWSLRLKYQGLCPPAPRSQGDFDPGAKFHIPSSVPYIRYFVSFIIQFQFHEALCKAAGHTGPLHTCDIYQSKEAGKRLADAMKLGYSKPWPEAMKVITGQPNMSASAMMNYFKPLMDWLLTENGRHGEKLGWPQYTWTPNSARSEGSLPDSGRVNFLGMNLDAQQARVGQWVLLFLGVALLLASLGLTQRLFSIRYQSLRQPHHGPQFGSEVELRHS
Text: N-[N^α-(3-Phenyl-2-S-mercaptopropanoyl)-S-lysyl]-thiazolidin-4-S-carbonsäure zeigt am Angiotensin I Converting Enzym in vitro eine Hemmaktivität IC50= 4,6 . 10^-9 [M]; die IC50 beträgt beim N-[N^αa-(3-Phenpl-2-S-mercaptopropanoyl)-S-lysyl]-S-prolin 2,7 . 10-^8 [M].
Als IC50 wird hierbei diejenige Hemmstoffkonzentration bezeichnet, bei der das Angiotensin I Converting Enzym zu 50 % gehemmt wird (s. H. S. Cheung, D. W. Cushman, Biochem. Biophys. Acta 293, 451 (1973)).

Angiotensin I = experiment: Lowering of blood pressure raised by i.v. angiotensin I in the anaesthetised rat; format: in vivo, Ratte; conditions: anaesthetised rat, 0,3 mg/kg i.v.; blood pressure raised beforehand by 0,1 mg/kg Angiotensin I i.v.
Description: So erzeugt N-[N^α-(3-Phenyl-2-S-mercaptopropanoyl)-S-lysyl]-thiazolidin-4-S-carbonsäure an der narkotisierten Ratte in einer Dosierung von 0,3 mg/kg i.v. eine lang anhaltende Blutdrucksenkung von 60 %, wenn man vorher durch eine i.v.-Gabe von 0,1 mg/kg Angiotensin I den Blutdruck steigert; beim N-[N^a-(3-Phenyl-2-S-mercaptopropanoyl)S-lysyl]-S-prolin liegt der Wert bei gleichem Test bei 57 %.

Row | Compound | IC50 [1] | lang anhaltende Blutdrucksenkung (Angiotensin I)
1 | N-[N^α-(3-Phenyl-2-S-mercaptopropanoyl)-S-lysyl]-thiazolidin-4-S-carbonsäure [Beispiel 3] | 4.6 nM | 60%
2 | NCCCC[C@H](NC(=O)[C@@H](S)Cc1ccccc1)C(=O)N1CCC[C@H]1C(=O)O [Beispiel 11] | – | 57%
